Measured values published in patent publication US9108930B2, “N1- and N2-carbamoyl-1,2,3-triazole serine hydrolase inhibitors and methods” (The Scripps Research Institute, priority 2011, dated 2015).
Several values for one entry are separate records, joined by “and”; a condition that tells them apart may be missing. Equal entries are not always repeated.

Experiments:
APEH = molecular target: T1, APEH (Mus musculus, UniProt Q8R146); assay: Gel-based competitive ABPP, mouse T-cell proteome in vitro; format: biochemical
T1 sequence (Q8R146 1-732): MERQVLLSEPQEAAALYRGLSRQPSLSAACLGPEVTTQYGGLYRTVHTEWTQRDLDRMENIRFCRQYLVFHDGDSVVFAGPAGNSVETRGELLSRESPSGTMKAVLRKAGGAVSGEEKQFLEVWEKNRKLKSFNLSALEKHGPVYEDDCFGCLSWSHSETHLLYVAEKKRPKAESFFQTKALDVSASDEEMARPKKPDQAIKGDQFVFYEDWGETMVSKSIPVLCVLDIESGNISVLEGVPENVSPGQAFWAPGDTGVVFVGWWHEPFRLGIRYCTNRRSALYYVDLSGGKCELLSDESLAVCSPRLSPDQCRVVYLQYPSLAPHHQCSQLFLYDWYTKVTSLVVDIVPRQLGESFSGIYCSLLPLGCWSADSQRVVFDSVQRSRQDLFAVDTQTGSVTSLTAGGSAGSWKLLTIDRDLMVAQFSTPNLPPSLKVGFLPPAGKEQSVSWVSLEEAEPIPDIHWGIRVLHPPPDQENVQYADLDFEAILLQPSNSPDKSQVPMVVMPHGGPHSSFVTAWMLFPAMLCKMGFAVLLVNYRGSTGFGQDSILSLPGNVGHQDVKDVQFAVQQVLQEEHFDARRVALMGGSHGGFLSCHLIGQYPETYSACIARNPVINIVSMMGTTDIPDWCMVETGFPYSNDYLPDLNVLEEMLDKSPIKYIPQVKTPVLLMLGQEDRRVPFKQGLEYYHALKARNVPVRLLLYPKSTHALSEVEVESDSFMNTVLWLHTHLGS
Experimental: The carbamoyl triazole regioisomers were separated by gel chromatography and used for subsequent experiments. […] The compounds were screened at concentrations of 10 and 100 nM in mouse T-cell proteomes (FIG. 3e and FIG. 12).
Gel-based competitive ABPP experiments were performed as described previously. For competitive ABPP with FP-rhodamine, proteomes (1 mg/mL in PBS) were treated with FP-rhodamine (2 μM final concentration) in a […] total reaction volume. After 30 minutes at 25° C., the reactions were quenched with 2×SDS-PAGE loading buffer.
Proteomes were incubated with inhibitors for 30 minutes at 37° C. (in vitro) or for 4 h at 37° C. (in situ) at the indicated concentrations (n=3) prior to FP-rhodamine labeling. After SDS-PAGE and in-gel visualization, the percentage enzymatic activity remaining was determined by measuring the integrated optical intensity of the bands using IMAGER® software. IC50 values were determined from a dose-response curve generated using PRISM® software (GraphPad).

[1] = molecular target: T2, APEH recombinantly expressed in HEK-293 cells (Mus musculus, UniProt Q8R146); assay: APEH exopeptidase assay with synthetic N-acetylated hexapeptides (LC-MS); format: biochemical; conditions: 3 nM, 30 min pre-treatment
T2 construct: full-length cDNAs encoding mouse serine hydrolases were either transfected directly; host or cells: HEK-293
Experimental: Enzyme assays were performed with LC-MS by monitoring the release of the N-terminal N-acetyl amino acid. APEH was transiently overexpressed in HEK-293 cells and whole cell lysates were treated with DMSO or 3 nM AA74-1 for 30 minutes and adjusted to a final protein concentration of about 0.3 mg/mL with PBS buffer. For each reaction, about 200 μM of hexapeptide were incubated with lysates for 10 h at 37° C. before quenching with 0.8 mL MeOH. Samples were centrifuged for 10 minutes at 10,000×g at 4° C. and the supernatant was dried down under vacuum. For LC-MS analysis samples were injected into an Agilent 1100 LC-MSD SL instrument applying the following gradient: Buffer A (MeCN) to Buffer B (95:5 H2O/MeCN+50 mM NH4OAc+0.2% NH4OH). Data represent the average±s.d. for three experiments.
Enzyme assays were performed with LC-MS by monitoring the formation of free N-acetyl amino acid. Mouse APEH was recombinantly expressed in HEK-293 cells and whole cell lysates of overexpressed APEH (or mock) were pre-treated with DMSO or 3 nM AA74-1 for 30 minutes and adjusted to a final protein concentration of 0.3 mg/mL with PBS buffer. For each reaction 200 μM of hexapeptide substrate were incubated with lysates in 200 μL total reaction volume. Reactions were incubated for 10 h at 37° C. before quenching with 0.8 mL MeOH. […]

## CC(C)CC(O)(CC(C)C)c1cnn(C(=O)N2CCCC2)n1 [AA74-1]
APEH; 10 nM
  inhibition of APEH: completely inhibited APEH
APEH; IC50 for APEH, in vitro, 30 minutes at 37° C., mouse
  IC50: 5 nM and 3 nM
[1]
  cleavage of N-terminally acetylated residue by APEH-transfected cells: blocked
